# Biological target: T1, Tyrosine-protein phosphatase non-receptor type 11 (Homo sapiens, UniProt Q06124)
# T1 sequence (Q06124 whole entry): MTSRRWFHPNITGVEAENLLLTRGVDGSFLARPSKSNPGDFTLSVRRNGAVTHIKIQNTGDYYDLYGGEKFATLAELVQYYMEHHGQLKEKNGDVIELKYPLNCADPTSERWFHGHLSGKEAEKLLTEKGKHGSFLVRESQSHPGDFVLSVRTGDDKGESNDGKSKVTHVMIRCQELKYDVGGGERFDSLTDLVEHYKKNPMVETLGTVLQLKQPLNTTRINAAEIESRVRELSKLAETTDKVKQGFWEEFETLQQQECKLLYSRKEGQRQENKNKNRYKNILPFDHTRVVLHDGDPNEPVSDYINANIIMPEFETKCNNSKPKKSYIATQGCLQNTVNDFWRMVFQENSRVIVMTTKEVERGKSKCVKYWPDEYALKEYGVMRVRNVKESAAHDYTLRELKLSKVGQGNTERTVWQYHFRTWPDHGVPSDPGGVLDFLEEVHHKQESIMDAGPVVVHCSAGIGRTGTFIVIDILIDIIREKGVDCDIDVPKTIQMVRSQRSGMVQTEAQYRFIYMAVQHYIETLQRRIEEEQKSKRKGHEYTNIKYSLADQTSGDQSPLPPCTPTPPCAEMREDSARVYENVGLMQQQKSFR
# Experiment: Assay for the inhibitory effect on the SHP2 enzyme
# Description: A mixed liquor of 2× working SHP2 reagent (0.4 nM) and 0.5 μM SHP-2 activated peptide (BPS bioscience #79319-2) was prepared with 1× enzyme buffer. After the above-mixed liquor was incubated at 25° C. for 60 minutes, 5 μL of activated SHP2 kinase solution was transferred with a pipettor to the compound wells and the Max control wells (Corning, #4514) of the plate. Then 5 μL of 1× kinase buffer was transferred to the Min control wells. The plate was centrifuged at 1000 rpm for 30 seconds, sealed, and incubated in a 25° C. constant-temperature incubator for 30 minutes. A substrate solution of DiFMUP (#D6567, Invitrogen™) was prepared with 1× kinase buffer, and its concentration should be 2 times as the final concentration of the assay (DiFMUP final concentration: 10 μM). 5 μL of the prepared substrate solution was transferred with an electric pipettor into each well of the ELISA plate to start the reaction. The plate was centrifuged at 1000 rpm for 30 seconds, sealed, and incubated in a 25° C. constant-temperature incubator for 60 minutes. Read the plate at the excitation/emission wavelength of 358/455 nm after the ELISA plate was placed on the Spark machine.
compound,measurement,value
"COC(=O)c1nc(Sc2cccc(-c3ccn(C)n3)c2Cl)cnc1N1CCC2(CC1)Cc1ccccc1[C@H]2N [US20240376119, Example 19]",IC50,in the range around 20 nM

# — BindingDB's records for patent US20240376119 (Cspc Zhongqi Pharmaceutical Technology (Shijiazhuang), 2024)
